The values below come from patent EP4703354A1, “COMPOUND AS CCR6 ANTAGONIST, AND PHARMACEUTICAL COMPOSITION AND USE THEREOF” (Wuhan Createrna Science and Technology Co.,Ltd., priority 2023, dated 2024).

Structures are written as SMILES. Where two headings read alike, the source gives them in different places.

Data set [1] concerns the target T1, human CCR6 (Homo sapiens, UniProt P51684).
T1 construct: expressed in transfected cells; host or cells: HEK293
T1 sequence (P51684 1-374): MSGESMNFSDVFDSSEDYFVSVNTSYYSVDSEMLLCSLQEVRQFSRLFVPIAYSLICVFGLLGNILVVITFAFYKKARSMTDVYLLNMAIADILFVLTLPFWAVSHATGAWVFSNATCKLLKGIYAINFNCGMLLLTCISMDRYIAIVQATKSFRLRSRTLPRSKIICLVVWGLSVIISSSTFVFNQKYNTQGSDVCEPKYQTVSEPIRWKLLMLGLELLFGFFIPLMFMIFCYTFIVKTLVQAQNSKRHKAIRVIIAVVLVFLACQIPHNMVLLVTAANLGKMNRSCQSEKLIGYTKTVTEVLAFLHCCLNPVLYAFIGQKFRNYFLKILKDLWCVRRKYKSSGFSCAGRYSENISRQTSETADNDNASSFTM
The data set is described as follows: human CCR6 calcium flux activity (FLIPR, HEK293 cells stably expressing human CCR6, CCL20 stimulation). It is filed as cell-based. To be noted: HEK293 cells stably expressing human CCR6, EC80 human MIP-3 alpha/CCL20; read-out: CCR6 inhibitory activity, IC50. As for the experimental part: The activity of the compounds was evaluated using HEK293 cells stably expressing human CCR6 via the FLIPR platform. A 384-well black cell culture plate (Greiner, 781946) was used, with a seeding density of 20,000 cells/well, and incubated overnight at 37°C in a 5% CO2 incubator. The culture medium in the cell plate wells was removed, and 20 µL of Fluo-4 Direct™ Calcium Assay Buffer (Invitrogen, F10471, Component C), 20 µL of 2× Fluo-4 Direct™ Calcium Assay Reagent (Invitrogen, F10471, Component A) working solution, and 10 µL of 6× test compound working solution were sequentially added to each well. The cell plate was incubated in a 37 °C, 5% CO2 incubator for 50 min, followed by a 10 min incubation at room temperature. Additionally, a 6×EC80 human MIP-3 alpha/CCL20 (MCE, HY-P7262) working solution was prepared. After the incubation was completed, 10 µL/well of the 6×EC80 human MIP-3 alpha/CCL20 working solution was transferred to the cell plate using a FLIPR instrument, and the fluorescence signal changes at an excitation wavelength of 494 nm and an emission wavelength of 516 nm were recorded over 90 seconds. The difference between the maximum fluorescence signal (RFUMax) and the minimum fluorescence signal (RFUMin) was used as the output signal. The compound inhibition rate and the log value of the compound concentration were calculated, and a four-parameter fitting analysis was performed using GraphPad Prism 8 software to obtain the IC50 value of the test compound.

The nature of data set [2]: in vivo pharmacokinetic study in SD rats. The settings on record: rat; for bioavailability: 1 mg/kg PO vs 1 mg/kg IV, read-out: Oral bioavailability F (%); for AUC(0-t) / Cmax / half-life: 1 mg/kg. As for the experimental part: 2.2.1 Rats: SD rats, SPF grade, 6 rats per compound, male, body weight range 180-200 g.
2.2.2 Housing conditions: The animals were housed in an SPF-grade animal facility with free access to food and water, three per cage, under a 12/12-hour light/dark cycle (7:00 am/7:00 pm), at a temperature of 23 ± 3°C.
2.2.3 Drug preparation: The compound was precisely weighed, mixed with the required volume of 1% Tween 80, vortexed for 2 min, and then sonicated for 5 min until no visible particles remained. The mixture was subsequently stirred on a magnetic stirrer for 20 min, and the middle layer of the drug solution was collected for administration. For the IV group, the compound was accurately weighed, dissolved in the required volume of 50% PEG400, sonicated for 10 min, and vortexed until clear before administration.
The rats were randomly divided into 2 groups based on body weight, with 3 rats per compound per group. Group 1 was administered a single oral gavage dose (fasted), and Group 2 was administered a single tail vein bolus injection. Blood collection time points: for the po group, blood was collected at 0.167 h, 0.5 h, 1 h, 2 h, 3 h, 4 h, 6 h, and 8 h; for the iv group, blood was collected at 0.033 h, 0.167 h, 0.5 h, 1 h, 2 h, 4 h, 6 h, and 8 h.
After administration to the rats, blood was collected from the orbital venous plexus according to the sampling time points. Approximately 0.2-0.3 mL of blood was collected at each time point into anticoagulant EP tubes (containing 4 µL of EDTA-K2, 375 mg/mL, dried at 50°C). The tubes were slowly inverted up and down three times and stored in an ice box (for no more than 30 minutes). Centrifugation was performed at 4°C at 3000 × g for 10 minutes, and the supernatant was transferred to labeled EP tubes for bioanalytical testing. If testing could not be performed on the same day, the samples were stored at -80°C until analysis (care was taken to avoid multiple freeze/thaw cycles).
The data were analyzed using WinNonlin via a non-compartmental model to obtain PK parameters (Cmax, AUC0-last, AUCinf, T1/2, etc., selected based on different routes of administration). For specific data, please refer to Table 2. Table 2. PK experimental results of compounds in SD rats

With `CN(C)C(=O)c1nccc(Nc2c(N[C@@H](c3ncccc3F)C3(C)CCCC3)c(=O)c2=O)c1O` [compound 001, (R)-4-((2-(((3-fluoropyridin-2-yl)(1-methylcyclopentyl)methyl)amino)-3,4-dioxocyclobut-1-en-1-yl)amino)-3-hydroxy-N,N-dimethylpicolinamide], the IC50 – broadly, the point on the concentration scale where inhibition reaches its midpoint – in data set [1] was 2.4 nM.

Regarding `CN(C)C(=O)c1nccc(Nc2c(N[C@@H](c3cnccn3)C3(C)CCCC3)c(=O)c2=O)c1O` [compound 006, (R)-3-hydroxy-N,N-dimethyl-4-((2-(((1-methylcyclopentyl)(pyrazin-2-yl)methyl)amino)-3,4-dioxocyclobut-1-en-1-yl)amino)picolinamide], the IC50 in data set [1] worked out at 74 nM.

In the case of `CN(C)C(=O)c1nccc(Nc2c(NC(C(=O)C3CCC3)C3(C)CCCC3)c(=O)c2=O)c1O` (stereo not drawn) [compound 035, 4-((2-((2-cyclobutyl-1-(1-methylcyclopentyl)-2-oxoethyl)amino)-3,4-dioxocyclobut-1-en-1-yl)amino)-3-hydroxy-N,N-dimethylpicolinamide], the IC50 in data set [1] was determined as 820 nM.

Turning to `CN(C)C(=O)c1nccc(Nc2c(NC(C(=O)C3CC3)C3(C)CCCC3)c(=O)c2=O)c1O` (stereo not drawn) [compound 034, 4-((2-((2-cyclopropyl-1-(1-methylcyclopentyl)-2-oxoethyl)amino)-3,4-dioxocyclobut-1-en-1-yl)amino)-3-hydroxy-N,N-dimethylpicolinamide], the IC50 in data set [1] turned out to be 887 nM.

As for `CN(C)C(=O)c1nccc(Nc2c(N[C@@H](C#Cc3ccccn3)C3(C)CCCC3)c(=O)c2=O)c1O` [compound 118, (R)-3-hydroxy-N,N-dimethyl-4-((2-((1-(1-methylcyclopentyl)-3-(pyridin-2-yl)prop-2-yn-1-yl)amino)-3,4-dioxocyclobut-1-en-1-yl)amino)picolinamide], the IC50 in data set [1] was found to be 183 nM.

As for `Cc1cnc([C@H](Nc2c(Nc3ccnc(C(=O)N(C)C)c3O)c(=O)c2=O)C2(C)CCCC2)c(C)c1` [compound 061, (R)-4-((2-(((3,5-dimethylpyridin-2-yl)(1-methylcyclopentyl)methyl)amino)-3,4-dioxocyclobut-1-en-1-yl)amino)-3-hydroxy-N,N-dimethylpicolinamide], in data set [1], the IC50 worked out at 152 nM.

On to `CC(C)N(C)C(=O)c1nccc(Nc2c(N[C@@H](c3ncccc3F)C3(C)CCCC3)c(=O)c2=O)c1O` [compound 026, (R)-4-((2-(((3-fluoropyridin-2-yl)(1-methylcyclopentyl)methyl)amino)-3,4-dioxocyclobut-1-en-1-yl)amino)-3-hydroxy-N-isopropyl-N-methylpicolinamide], for which, in data set [1], the IC50 was determined as 0.7 nM.

On to `Cc1cc(F)cnc1[C@H](Nc1c(Nc2ccnc(C(=O)N(C)C)c2O)c(=O)c1=O)[C@@]1(C)CC(F)(F)CO1` [093B, 4-((2-(((S)-((R)-4,4-difluoro-2-methyltetrahydrofuran-2-yl)(5-fluoro-3-methylpyridin-2-yl)methyl)amino)-3,4-dioxocyclobut-1-en-1-yl)amino)-3-hydroxy-N,N-dimethylpicolinamide], for which the bioavailability in data set [2] (male, plasma) was determined as 51.6%. In data set [2] (male, plasma, IV), the area under the curve AUC(0-t) (usually the area under the concentration-time curve up to a stated or last time point) stood at 716 ng·h/mL and the highest level (Cmax) was 1890 ng/mL. For the same compound, in data set [2] (male, plasma, PO), the AUC(0-t) is 370 ng·h/mL, the highest level (Cmax) was 285 ng/mL and the half-life (commonly how long it takes for the measured level to halve) is 3.83 h.

As for `CN(C)C(=O)c1nccc(Nc2c(NC(c3nn(C)c4c3COC4)C3(C)CCCC3)c(=O)c2=O)c1O` (stereo not drawn) [compound 027, 3-hydroxy-N,N-dimethyl-4-((2-(((1-methyl-4,6-dihydro-1H-furo[3,4-c]pyrazol-3-yl)(1-methylcyclopentyl)methyl)amino)-3,4-dioxocyclobut-1-en-1-yl)amino)picolinamide], in data set [1], the IC50 amounted to 1370 nM.

Turning to `Cc1cccnc1[C@H](Nc1c(Nc2ccc(F)c(C(=O)N(C)C)c2O)c(=O)c1=O)C1(C)CCCC1` [compound 104, (R)-6-fluoro-2-hydroxy-N,N-dimethyl-3-((2-(((1-methylcyclopentyl)(3-methylpyridin-2-yl)methyl)amino)-3,4-dioxocyclobut-1-en-1-yl)amino)benzamide], the IC50 in data set [1] was 4 nM.

On to `CN(C)C(=O)c1nccc(Nc2c(N[C@@H](c3ccc(F)c(F)n3)C3(C)CCCC3)c(=O)c2=O)c1O` [compound 024, (R)-4-((2-(((5,6-difluoropyridin-2-yl)(1-methylcyclopentyl)methyl)amino)-3,4-dioxocyclobut-1-en-1-yl)amino)-3-hydroxy-N,N-dimethylpicolinamide], for which the IC50 in data set [1] came out at 47.4 nM.

Take `Cc1cccnc1[C@H](Nc1c(Nc2ccc(C)c(C(=O)N(C)C)c2O)c(=O)c1=O)C1(C)CCCC1` [compound 103, (R)-2-hydroxy-N,N,6-trimethyl-3-((2-(((1-methylcyclopentyl)(3-methylpyridin-2-yl)methyl)amino)-3,4-dioxocyclobut-1-en-1-yl)amino)benzamide]: the IC50 in data set [1] came to 73.6 nM.

Regarding `Cc1ccc(F)nc1C(Nc1c(Nc2ccnc(C(=O)N(C)C)c2O)c(=O)c1=O)C1(C)CC2CC2C1` (stereo not drawn) [compound 121, 4-((2-(((6-fluoro-3-methylpyridin-2-yl)(3-methylbicyclo[3.1.0]hexan-3-yl)methyl)amino)-3,4-dioxocyclobut-1-en-1-yl)amino)-3-hydroxy-N,N-dimethylpicolinamide], the IC50 in data set [1] was 86.2 nM.

On to `CN(C)C(=O)c1nccc(Nc2c(N[C@@H](c3ncccc3C(F)F)C3(C)CCCC3)c(=O)c2=O)c1O` [compound 015, (R)-4-((2-(((3-(difluoromethyl)pyridin-2-yl)(1-methylcyclopentyl)methyl)amino)-3,4-dioxocyclobut-1-en-1-yl)amino)-3-hydroxy-N,N-dimethylpicolinamide], for which the IC50 in data set [1] turned out to be 161 nM.

As to `CN(C)C(=O)c1nccc(Nc2c(N[C@@H](c3cccc(C(F)(F)F)n3)C3(C)CCCC3)c(=O)c2=O)c1O` [compound 008, (R)-3-hydroxy-N,N-dimethyl-4-((2-(((1-methylcyclopentyl)(6-(trifluoromethyl)pyridin-2-yl)methyl)amino)-3,4-dioxocyclobut-1-en-1-yl)amino)picolinamide], in data set [1], the IC50 is 151 nM.

Consider `Cc1c(Cl)ccnc1[C@H](Nc1c(Nc2ccnc(C(=O)N(C)C)c2O)c(=O)c1=O)C1(C)CCCC1` [compound 048, (R)-4-((2-(((4-chloro-3-methylpyridin-2-yl)(1-methylcyclopentyl)methyl)amino)-3,4-dioxocyclobut-1-en-1-yl)amino)-3-hydroxy-N,N-dimethylpicolinamide], for which the IC50 in data set [1] came to 60.8 nM.

In the case of `Cc1cccnc1C(Nc1c(Nc2ccnc(C(=O)N(C)C)c2O)c(=O)c1=O)C1(C)CCC(F)(F)C1` (single isomer, unassigned) [125B], in data set [2] (in vivo), the bioavailability was 136%. Moreover, in data set [2] (in vivo, IV), the AUC(0-t) was determined as 1500 ng·h/mL and the Cmax (as a rule, the peak of the concentration-time curve) was determined as 3050 ng/mL. In data set [2] (in vivo, PO), this compound showed an AUC(0-t) of 2040 ng·h/mL, a Cmax of 822 ng/mL and a half-life of 1.37 h.
